# Source: paper PMC6630832, “3-Vinylazetidin-2-Ones: Synthesis, Antiproliferative and Tubulin Destabilizing Activity in MCF-7 and MDA-MB-231 Breast Cancer Cells” (Pharmaceuticals, 2019)
# Several values for one entry are separate records, joined by “and”; a condition that tells them apart may be missing. Equal entries are not always repeated. Where two headings read alike, the source gives them in different places.
# Columns and labels:
# HL-60 = experiment: Antiproliferative activity in HL-60 leukemia cells; assay type: cell-based; settings: Homo sapiens
# Experimental: The human breast carcinoma cell line MCF-7, was purchased from the European Collection of Animal Cell Cultures (ECACC) and was cultured in Eagle’s minimum essential medium with 10% fetal bovine serum, 2 mM L-glutamine and 100 μg/mL penicillin/streptomycin. The medium was supplemented with 1% non-essential amino acids. The human breast carcinoma cell line MDA-MB-231 was purchased from the European Collection of Animal Cell Cultures (ECACC). MDA-MB-231 cells were maintained in Dulbecco’s modified Eagle’s medium (DMEM) supplemeted with 10% (v/v) fetal bovine serum, 2 mM L-glutamine and 100 μg/mL penicillin/streptomycin (complete medium). All media contained 100 U/mL penicillin and 100 μg/mL streptomycin. […]
# Cells were seeded at a density of 5 × 10^3 cells/well (MCF-7), in triplicate in 96-well plates. […] Cell viability for MCF-7 and MDA-MB-231 was analysed using the Alamar Blue assay (Invitrogen Corp, Thermo Fisher Scientific, 168 Third Avenue, Waltham, MA, USA) according to the manufacturer’s instructions. […] Fluorescence was read using a 96-well fluorimeter with excitation at 530 nm and emission at 590 nm. Results were expressed as percentage viability relative to vehicle control (100%). […]
# [1] = system: human MDA-MB-231 breast cancer cells; experiment: Cell viability (Alamar Blue) antiproliferative assay in MDA-MB-231 cells; assay type: cell-based; settings: mean ± SEM
# Experimental: The human breast carcinoma cell line MCF-7, was purchased from the European Collection of Animal Cell Cultures (ECACC) and was cultured in Eagle’s minimum essential medium with 10% fetal bovine serum, 2 mM L-glutamine and 100 μg/mL penicillin/streptomycin. The medium was supplemented with 1% non-essential amino acids. The human breast carcinoma cell line MDA-MB-231 was purchased from the European Collection of Animal Cell Cultures (ECACC). MDA-MB-231 cells were maintained in Dulbecco’s modified Eagle’s medium (DMEM) supplemeted with 10% (v/v) fetal bovine serum, 2 mM L-glutamine and 100 μg/mL penicillin/streptomycin (complete medium). All media contained 100 U/mL penicillin and 100 μg/mL streptomycin. Triple negative breast cancer Hs578T cells and its invasive variant Hs578Ts(i)8 were obtained as a kind gift from Dr. Susan McDonnell, School of Chemical and Bioprocess Engineering, University College Dublin and were cultured in Dulbecco’s Modified Eagle’s Media (DMEM) with GlutaMAX^TM-I, with the same supplement as for MDA-MB-231 cells in the absence of non-essential amino acids. HEK-293T normal epithelial embryonic kidney cells were cultured in Dulbecco’s Modified Eagle’s Medium (DMEM) with GlutaMAX^TM-I in the absence of non-essential amino acids. K562 and HL-60 cells were originally obtained from the European Collection of Cell Cultures (Salisbury, UK).The K562 cells were derived from a patient in the blast crisis stage of CML HL-60 cells were derive from a patient with acute myeloid leukaemia. Cells were cultured in RPMI-1640 Glutamax medium supplemented with 10% FCS media, and 100 μg/mL penicillin/streptomycin. Cells were maintained at 37 °C in 5% CO2 in a humidified incubator. All cells were sub-cultured three times/week (adherent cells by trypsinisation).
# Cells were seeded at a density of 5 × 10^3 cells/well (MCF-7), in triplicate in 96-well plates. After 24 h, cells were then treated with either medium alone, vehicle [1% ethanol (v/v)] or with serial dilutions of CA-4 or β-lactam analogue. Cell viability for MCF-7 and MDA-MB-231 was analysed using the Alamar Blue assay (Invitrogen Corp, Thermo Fisher Scientific, 168 Third Avenue, Waltham, MA, USA) according to the manufacturer’s instructions. After 72 h, Alamar Blue [10% (v/v)] was added to each well and plates were incubated for 3–5 h at 37 °C in the dark. Fluorescence was read using a 96-well fluorimeter with excitation at 530 nm and emission at 590 nm. Results were expressed as percentage viability relative to vehicle control (100%). Dose response curves were plotted and IC50 values (concentration of drug resulting in 50% reduction in cell survival) were obtained using the commercial software package Prism (GraphPad Software, Inc., 2365 Northside, Suite 560, San Diego, CA, USA). Experiments were performed in triplicate on at least three separate occasions.
# purified bovine tubulin = target: T1, purified bovine tubulin (Bos taurus, UniProt P81947+Q6B856); experiment: Tubulin polymerization assay; assay type: biochemical; settings: for vmax of tubulin polymerization: absorbance at 340 nm, 37 °C
# T1 construct: Purified (>99%) bovine brain tubulin (3 mg/mL); purchased Cytoskeleton Inc. BK006; host or cells: bovine brain (tissue-purified)
# Experimental: The assembly of purified bovine tubulin was monitored using a kit, BK006, purchased from Cytoskeleton Inc., 1830 S Acoma St, Denver, CO, 80223, USA.. The assay was carried out in accordance with the manufacturer’s instructions in the tubulin polymerisation assay kit manual using the standard assay conditions. The values reported represent the average values from two independent assays. Purified (>99%) bovine brain tubulin (3 mg/mL) in a buffer consisting of 80 mM PIPES (pH 6.9), 0.5 mM EGTA, 2 mM MgCl2, 1 mM GTP and 10% glycerol was incubated at 37 °C in the presence of either vehicle (2% (v/v) ddH2O) or compounds 7h, 7i, 7s, 7t (initially 10 µM in EtOH); CA-4 and Paclitaxel were used as controls. Light is scattered proportionally to the concentration of polymerised microtubules in the assay. Therefore, tubulin assembly was monitored turbidimetrically at 340 nm at 37 °C in a Spectramax 340 PC spectrophotometer (Molecular Devices, 3860 N 1st St, San Jose, CA, USA). The absorbance was measured at 30 s intervals for 60 min.
# MCF-7 = experiment: NCI60 screen (SRB), Breast cancer; assay type: cell-based; settings: Homo sapiens, MCF7
# T-47D = experiment: NCI60 screen (SRB), Breast cancer; assay type: cell-based; settings: Homo sapiens, T47D
# DU-145 = experiment: NCI60 screen (SRB), Prostate cancer; assay type: cell-based; settings: Homo sapiens
# SW-620 = experiment: NCI60 screen (SRB), Colon Cancer; assay type: cell-based; settings: Homo sapiens
# UACC-62 = experiment: NCI60 screen (SRB), Melanoma; assay type: cell-based; settings: Homo sapiens
# LOX IMVI = experiment: NCI60 screen (SRB), Melanoma; assay type: cell-based; settings: Homo sapiens
# U251 = experiment: NCI60 screen (SRB), CNS Cancer; assay type: cell-based; settings: Homo sapiens, U-251
# SNB-75 = experiment: NCI60 screen (SRB), CNS Cancer; assay type: cell-based; settings: Homo sapiens
# NCI-H226 = experiment: NCI60 screen (SRB), Non-Small Cell Lung Cancer; assay type: cell-based; settings: Homo sapiens
# NCI-H552 = experiment: NCI60 screen (SRB), Non-Small Cell Lung Cancer; assay type: cell-based
# HS 578T = experiment: NCI60 screen (SRB), Breast cancer; assay type: cell-based; settings: Homo sapiens
# TK-10 = experiment: NCI60 screen (SRB), Renal cancer; assay type: cell-based; settings: Homo sapiens
# SR = experiment: NCI60 screen (SRB), Leukemia; assay type: cell-based; settings: Homo sapiens
# [2] = 10 μM, with reference to ethanol control
# [3] = NCI result in MCF-7 cells, read-out: GI50
# [4] = NCI60 Breast cancer cell line T-47D, read-out: GI50
# [5] = NCI60 Prostate cancer cell line DU-145, read-out: GI50
# [6] = NCI60 Colon Cancer cell line SW-620, read-out: GI50
# [7] = NCI60 Melanoma cell line UACC-62, read-out: GI50
# [8] = NCI60 Melanoma cell line LOX IMVI, read-out: GI50
# [9] = NCI60 CNS Cancer cell line U251, read-out: GI50
# [10] = NCI60 CNS Cancer cell line SNB-75, read-out: GI50
# [11] = NCI60 Breast cancer cell line HS 578T, read-out: GI50
# [12] = NCI60 Renal cancer cell line TK-10, read-out: GI50
# [13] = NCI60 Leukemia cell line SR, read-out: GI50
# T1 sequence (Q6B856 whole entry): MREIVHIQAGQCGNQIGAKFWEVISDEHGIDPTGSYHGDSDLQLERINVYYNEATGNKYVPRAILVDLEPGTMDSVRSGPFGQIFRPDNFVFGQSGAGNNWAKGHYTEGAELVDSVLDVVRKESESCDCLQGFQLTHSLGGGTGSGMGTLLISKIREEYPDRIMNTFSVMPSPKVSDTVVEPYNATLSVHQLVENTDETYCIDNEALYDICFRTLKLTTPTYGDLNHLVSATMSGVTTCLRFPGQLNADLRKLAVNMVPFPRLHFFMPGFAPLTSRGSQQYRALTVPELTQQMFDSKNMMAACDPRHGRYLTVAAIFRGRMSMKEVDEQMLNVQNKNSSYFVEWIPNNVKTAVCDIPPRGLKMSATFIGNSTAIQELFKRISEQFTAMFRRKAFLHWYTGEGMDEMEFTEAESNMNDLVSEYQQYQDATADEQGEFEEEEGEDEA
# T1 sequence (P81947 whole entry): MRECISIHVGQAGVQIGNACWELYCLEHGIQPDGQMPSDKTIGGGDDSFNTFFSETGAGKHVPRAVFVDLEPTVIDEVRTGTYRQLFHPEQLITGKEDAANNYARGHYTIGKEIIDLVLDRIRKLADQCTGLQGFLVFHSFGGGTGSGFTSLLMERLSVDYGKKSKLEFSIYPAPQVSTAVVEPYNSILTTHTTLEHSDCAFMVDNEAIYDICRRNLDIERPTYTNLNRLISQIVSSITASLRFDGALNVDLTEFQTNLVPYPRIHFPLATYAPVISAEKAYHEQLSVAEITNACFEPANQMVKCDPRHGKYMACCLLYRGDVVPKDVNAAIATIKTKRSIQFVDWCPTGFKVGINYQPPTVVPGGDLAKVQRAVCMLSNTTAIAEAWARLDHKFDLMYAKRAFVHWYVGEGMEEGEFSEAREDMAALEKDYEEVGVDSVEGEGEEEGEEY
Compound,IC50 (HL-60) [nM],IC50 [1] [nM],GI50 (MCF-7) [nM],GI50 (DU-145; DU-145) [nM],GI50 (SW-620; SW-620) [nM],GI50 (UACC-62; UACC-62) [nM],GI50 (LOX IMVI; LOX IMVI) [nM],GI50 (U251) [nM],vmax of tubulin polymerization (purified bovine tubulin; 10 μM) [mOD/min],fold reduction in vmax of tubulin polymerization (purified bovine tubulin; [2]),GI50 (MCF-7; [3]) [nM],GI50 (T-47D; [4]) [nM],GI50 (DU-145; [5]) [nM],GI50 (SW-620; [6]) [nM],GI50 (UACC-62; [7]) [nM],GI50 (LOX IMVI; [8]) [nM],GI50 (U251; [9]) [nM],GI50 (SNB-75; [10]) [nM],GI50 (HS 578T; [11]) [nM],GI50 (TK-10; [12]) [nM],other results
"COc1ccc(/C=C\c2cc(OC)c(OC)c(OC)c2)cc1O [CA-4, Combretastatin A-4, reference compound]",4,43,–,–,–,–,–,–,–,–,–,–,–,–,–,–,–,–,–,–,fold reduction in vmax of tubulin polymerization (purified bovine tubulin): 5.28 fold
"C=CC1C(=O)N(c2cc(OC)c(OC)c(OC)c2)C1c1ccc(OC)cc1 (stereo not drawn) [Compound 7h, 4-(4-Methoxyphenyl)-1-(3,4,5-trimethoxyphenyl)-3-vinylazetidin-2-one]",–,–,30.6,29.8,40.2,50.2,41.6,34.2,3.43,2.45 fold,–,–,–,–,–,–,–,–,–,–,GI50 (T-47D): 20500 nM; GI50 (SNB-75; SNB-75): 37.2 nM; GI50 (NCI-H226): 33.9 nM; GI50 (NCI-H552): 20.6 nM; GI50 (HS 578T; Hs-578T): 72.7 nM
"C=CC1C(=O)N(c2cc(OC)c(OC)c(OC)c2)C1c1ccc(OC)c(O)c1 (stereo not drawn) [Compound 7s, 4-[3-Hydroxy-4-methoxyphenyl]-1-(3,4,5-trimethoxyphenyl)-3-vinylazetidin-2-one]",17,–,–,–,–,–,–,–,–,8.7 fold and 8.70 fold,< 10,29.9,< 10,< 10,< 10,< 10,15.6,15.3,< 10,10.2,"fold reduction in vmax of tubulin polymerization (purified bovine tubulin; 1 μM): 2.61 fold; fold reduction in vmax of tubulin polymerization (purified bovine tubulin; 5 μM): 7.31 fold; IC50 (purified bovine tubulin; calculated from 1, 5 and 10 μM, read-out: IC50 for the inhibition of tubulin polymerization): 1370 nM"
"C=CC1C(=O)N(c2cc(OC)c(OC)c(OC)c2)C1c1ccc(OC)c(N)c1 (stereo not drawn) [Compound 7t, 4-(3-Amino-4-methoxyphenyl)-1-(3,4,5-trimethoxyphenyl)-3-vinylazetidin-2-one]",–,30 ± 2,< 10,36.5,40.5,12300,< 10,36.2,0.92,9.15 fold,–,–,–,–,–,–,–,–,–,–,GI50 (SR; SR): 43.9 nM; GI50 (SNB-75; SNB-75): 30.1 nM; GI50 (NCI-H226): 38.7 nM; GI50 (NCI-H552): < 10 nM; GI50 (HS 578T; Hs-578T): 39.8 nM; GI50 (TK-10; TK-10): 26800 nM
"C=CC1C(=O)N(c2cc(OC)c(OC)c(OC)c2)C1c1ccc(OC)c(OP(=O)(O)O)c1 (stereo not drawn) [Compound 17b, 2-Methoxy-5-(1-(3,4,5-trimethoxyphenyl)-4-oxo-3-vinylazetidin-2-yl)phenyl dihydrogen phosphate]",–,–,–,–,–,–,–,–,–,–,39.4,> 100000,59.6,55.2,51.1,42.2,34.3,36.5,53.1,11400,GI50 (SR; [13]): 57.2 nM
"CCC1C(=O)N(c2cc(OC)c(OC)c(OC)c2)C1c1ccc(OC)c(OP(=O)(O)O)c1 (stereo not drawn) [Compound 17c, 5-(3-Ethyl-1-(3,4,5-trimethoxyphenyl)-4-oxoazetidin-2-yl)-2-methoxyphenyl dihydrogen phosphate]",–,44 ± 7,–,–,–,–,–,–,–,–,25.1,> 100000,41.3,37.9,34.8,24.1,31.3,23.7,37.1,73.6,GI50 (SR; [13]): 33.5 nM
